# Assay results: PMC4810081, “Venetoclax (ABT-199) Might Act as a Perpetrator in Pharmacokinetic Drug–Drug Interactions” (Pharmaceutics, 2016)
# What was measured:
# LLC-PK1 = assay: Growth inhibition assay in LLC-PK1 cells; type: cell-based, porcine; conditions: Sus scrofa
# Experimental: LLC-PK1 and L-MDR1 cells. L-MDR1 cells, a porcine kidney epithelial cell line over-expressing the human ABCB1 gene and the corresponding parental control cell line LLC-PK1 (available from ATCC, Manassas, VA, USA) were used to assess the sensitivity of cells with and without P-gp over-expression. L-MDR1 cells were kindly provided by A. H. Schinkel (The Netherlands Cancer Institute, Division of Experimental Therapy, Amsterdam, The Netherlands). The cells were cultured under standard cell culture conditions with medium M199 supplemented with 10% FCS, 2 mM of glutamine, 100 U/mL of penicillin, and 100 µg/mL of streptomycin sulfate. To maintain P-gp/ABCB1 expression the culture medium for L-MDR1 was supplemented with 0.64 µM of vincristine. One day before seeding the cells for the growth inhibition assay, both cell lines were fed with a vincristine-free culture medium.
# Growth inhibition assays in LS180 cells were conducted to determine suitable maximum concentrations for the induction assay without profound antiproliferative effects. Proliferation was quantified by crystal violet staining of the surviving cells as described previously. Each experiment was performed at least in triplicate with n = 8 wells for each concentration (0.1–100 µM). […]
# OATP1B1 = molecular target: T1, OATP1B1 (Homo sapiens, UniProt Q9Y6L6); assay: OATP1B1 inhibition, 8-FcA uptake in HEK-OATP1B1 cells; type: in vitro ADME
# T1 construct: expressed in transfected cells; host or cells: HEK293 (HEK-OATP1B1; gift of D. Keppler)
# T1 sequence (Q9Y6L6 whole entry): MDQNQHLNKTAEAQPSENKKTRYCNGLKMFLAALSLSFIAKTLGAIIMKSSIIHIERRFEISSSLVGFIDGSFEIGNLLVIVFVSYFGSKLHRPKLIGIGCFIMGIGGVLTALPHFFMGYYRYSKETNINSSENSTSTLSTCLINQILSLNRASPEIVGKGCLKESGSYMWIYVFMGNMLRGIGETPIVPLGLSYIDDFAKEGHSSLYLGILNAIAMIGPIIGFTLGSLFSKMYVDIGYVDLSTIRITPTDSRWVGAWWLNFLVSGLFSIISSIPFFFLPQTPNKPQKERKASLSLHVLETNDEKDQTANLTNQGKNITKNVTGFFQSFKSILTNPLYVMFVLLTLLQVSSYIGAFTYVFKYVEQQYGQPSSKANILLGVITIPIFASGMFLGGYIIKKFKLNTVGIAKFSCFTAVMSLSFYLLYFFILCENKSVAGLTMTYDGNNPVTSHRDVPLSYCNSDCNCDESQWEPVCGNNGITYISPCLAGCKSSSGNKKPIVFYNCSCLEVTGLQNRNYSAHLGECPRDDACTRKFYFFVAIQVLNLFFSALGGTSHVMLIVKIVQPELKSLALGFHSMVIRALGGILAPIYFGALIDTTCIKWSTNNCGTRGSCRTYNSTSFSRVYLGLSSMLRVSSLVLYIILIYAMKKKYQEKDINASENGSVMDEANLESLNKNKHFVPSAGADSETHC
# Experimental: HEK293 cells. For assessing inhibition of OATP1B1 and OATP1B3, the human embryonic kidney cell line HEK293 stably transfected with OATP1B1 (HEK-OATP1B1), OATP1B3 (HEK-OATP1B3), or the empty control vector (HEK293-VCG418) were used. Cells were cultured under standard cell culture conditions with DMEM supplemented with 10% FCS, 2 mM of glutamine, 100 U/mL of penicillin, 100 µg/mL of streptomycin sulfate, and 800 µg/mL of G418 to maintain over-expression. Cells were kindly provided by D. Keppler (German Cancer Research Centre, Heidelberg, Germany).
# Inhibition of OATP1B1 and OATP1B3 was analyzed in HEK-OATP1B1 and HEK-OATP1B3 cells by quantifying the uptake of the fluorescent substrate 8-FcA by flow cytometry as described previously. HEK293-VCG418 cells were used as a control. Inhibition of OATPs leads to a reduced uptake of 8-FcA into the cells. Each experiment was performed at least in triplicate, and venetoclax was tested from 0.05 up to 100 µM.
# P-gp = assay: Western blot of P-gp protein expression in LS180 cells; type: in vitro ADME, human; conditions: four days, at 1 and 10 µM
# Experimental: For the induction experiments, LS180 cells were seeded in 75 cm^2 culturing flasks and incubated for three days. Cells were then treated with a culture medium containing venetoclax (0.01–10 µM) in quintuplicate for four consecutive days. Rifampicin (20 µM) served as a positive control for PXR-driven genes and culture medium as a negative control. All incubation solutions were adjusted to 0.02% DMSO. After harvesting, cells were split for RNA and protein extraction.
# To exemplarily verify the effects of venetoclax on mRNA expression, protein expressions of P-gp and CYP1A2 were analyzed in triplicate by SDS polyacrylamide gel electrophoresis (SDS-PAGE) and Western blotting. In brief, cell lysates containing 20 µg protein were mixed with 5× sample buffer (containing Tris–HCl, SDS, DTT, bromophenol blue, and glycerol) and subjected to 10% SDS-PAGE. Afterwards, proteins were electrotransferred to nitrocellulose nitrate membranes. Blots were blocked by incubation for 20–40 min with 5% Slim-Fast® (w/v) in phosphate-buffered saline containing 0.1% Tween®20. […] Bands were visualized by enhanced chemiluminescence using the SuperSignal®West Pico Chemiluminescent Substrate Kit and recorded by FluorChem Q SA AlphaView Version 3.2.2, Cell Biosciences (Santa Clara, CA, USA).
# [1] = Growth inhibition assay in MDCKII-BCRP cells; type: cell-based; conditions: dog, MDCKII-BCRP cells (BCRP over-expressing)
# Experimental: MDCKII cells. […] Moreover, MDCKII-BCRP cells were used to assess BCRP inhibition by venetoclax. MDCKII over-expressing cell lines were kindly provided by A. H. Schinkel and P. Borst (Amsterdam, The Netherlands). The parental cell line MDCKII (available at ATCC, Manassas, VA, USA) was used as a control. The cells were cultured in Dulbecco’s Modified Eagle’s Medium (DMEM) containing 10% FCS, 2 mM of glutamine, 100 U/mL of penicillin, and 100 µg/mL of streptomycin sulfate. Growth inhibition assays in LS180 cells were conducted to determine suitable maximum concentrations for the induction assay without profound antiproliferative effects. Proliferation was quantified by crystal violet staining of the surviving cells as described previously. […] Growth inhibition assays in MDCKII, and their MRP2 or BCRP over-expressing counterparts ([…], MDCKII-BCRP) and in LLC-PK1 and the corresponding P-gp over-expressing cell line L-MDR1 were conducted to evaluate whether venetoclax sustains its efficacy in MDR cell lines.
structure (smiles),measurement,setting,value
CC1(C)CCC(CN2CCN(c3ccc(C(=O)NS(=O)(=O)c4ccc(NCC5CCOCC5)c([N+](=O)[O-])c4)c(Oc4cnc5[nH]ccc5c4)c3)CC2)=C(c2ccc(Cl)cc2)C1 [Venetoclax],IC50,"LLC-PK1; LLC-PK1, LLC-PK1 + LY335979 (1 µM)",24.9 ± 1 µM
same,IC50,"LLC-PK1; LLC-PK1, LLC-PK1 parental cells",21 ± 0.7 µM
same,IC50,OATP1B1,47.8 ± 10.1 µM
same,P-gp protein expression,P-gp,suppression
same,IC50,[1],15.7 ± 0.4 µM
